{"source": "patent US20220098197A1", "about": "“SALTS OF HETEROCYCLIC COMPOUND AND USE THEREOF” (priority 2019, published 2022)", "key": {"neutrophils": {"test_system": "neutrophils", "assay": "PGD2-induced neutrophils migration, Boyden chamber assay (Example 1)", "format": "cell-based, mice", "details": "pretreatment CT-NA 1 and 10 μM (p<0.01) or OC459; PGD2 1 μM; 4 hrs", "experimental": "The mice were intragastrically administered glycogen (1.5%) at the dose range of 20 ml/kg of body weight. 4 hrs later, the mice were euthanized to isolate neutrophils from the peritoneal lavage. The effect of CT-NA on neutrophils migration was detected by using the Boyden chamber assay kit (3 μm pore size). PGD2 was used as a chemoattractant because the activated PGD2/CRTH2 receptors promoted the migration of neutrophils. Initially, the isolated neutrophils (4×10^5) were diluted in 100 μL HBSS and allowed to migrate toward PGD2 (0.1, 1 and 10 μM) for 4 hrs to find out the suitable PGD2 concentration. Then, the isolated neutrophils (4×10^5) were pretreated with CT-NA (1 and 10 μM), and their migration to PGD2 (1 μM) was evaluated by counting the migrated neutrophils. Moreover, another potent CRTH2 inhibitor OC459 was used to countercheck the outcomes of CT-NA."}, "[1]": {"assay": "Stability test (influencing factors: light, high temperature, high humidity)", "format": "physicochemical", "experimental": "Test process: An appropriate amount of each test sample was placed on a clean watch glass without a lid and then placed under the conditions of light 4500 lx±500 lx, high temperature of 60° C., high humidity of 92.5% RH for 5 days and 10 days, respectively. The properties and related substances were determined and the results were compared with the results at day 0 to observe the stability.\nThe test method for related substances was as follows.\nPreparation of test sample solution: About 10 mg of each test sample was placed in a 10 ml volumetric flask, and 50% acetonitrile aqueous solution was added to dissolve sample, and diluted to the mark, shaken well, and filtered to obtain the test sample solution. A precise amount of 10 μl of the test sample solution was taken and injected according to the above chromatographic method, and the maximum single impurity and total impurity were calculated according to the area normalization method."}, "CS-induced ALI mice": {"test_system": "CS-induced ALI mice", "assay": "CS-induced lung injury model: pulmonary histopathology (H&E)", "format": "in vivo, Balb/c mice", "experimental": "Model preparation: The mice were randomly divided into 5 groups (12 mice in each group), which were the control group (the mice were exposed to fresh air), the saline group (the mice were exposed to cigarette smoke), dexamethasone (Dex) group (1 mg/kg) (the mice were exposed to cigarette smoke), CT-NA 10 mg/kg group and CT-NA 30 mg/kg group (the mice were exposed to cigarette smoke). According to the grouping, the mice were intragastrically administered saline, Dex and CT-NA, respectively. Thereafter, the mice were exposed to fresh air or cigarette smoke generated from 3R4F research-grade cigarettes (containing about 600 mg TPM/m^3 and 29.9 mg nicotine/m^3) in a cuboid plastic box (65×50x×45 cm). Ten cigarettes were burned every day for seven days. After one cigarette was burned, the next cigarette was ignited. The daily body weight and general condition of the mice were checked. 24 hrs after the last exposure to the cigarette smoke, the partial pressure of oxygen (PO2) of all mice was measured by the Moor VMS-OXY™ measuring instrument, which was used to measure the oxygenated/deoxygenated hemoglobin concentration and oxygen saturation (percentage) in the microcirculation at the wavelength range of 500 to 650 nm. Then, all mice were euthanized to collect bronchoalveolar lavage fluid (BALF) for measuring the total number of inflammatory cells, cytokine levels and albumin concentration. […]"}, "[2]": {"test_system": "isolated peritoneal macrophages", "assay": "Cell viability (MTT) assay with LPS/PGD2, peritoneal macrophages", "format": "cell-based, mice"}, "[3]": {"details": "high temperature 60° C., Day 10"}, "[4]": {"details": "light condition 4500 lx±500 lx, Day 5"}, "[5]": {"details": "light condition 4500 lx±500 lx, Day 10"}}, "data": [{"smiles": "CN([C@@H]1CCc2c(CC(=O)[O-])c3cccnc3n2C1)S(=O)(=O)c1ccc(F)cc1.[Na+]", "note": "[Sodium salt hydrate]", "values": [{"measurement": "PGD2-induced neutrophils migration", "setting": "neutrophils", "result": "significantly attenuated"}, {"measurement": "stability under high temperature and high humidity conditions (in words)", "setting": "[1]; 60° C., 92.5% RH, 5 and 10 days", "result": "relatively stable"}, {"measurement": "maximum single impurity %", "setting": "[1]; Day 0", "result": 0.03, "unit": "%"}, {"measurement": "property", "setting": "[1]; Day 0", "result": "white powder"}, {"measurement": "total impurity %", "setting": "[1]; Day 0", "result": 0.07, "unit": "%"}, {"measurement": "maximum single impurity %", "setting": "[1]; high humidity 92.5% RH, Day 5", "result": 0.02, "unit": "%"}, {"measurement": "property", "setting": "[1]; high humidity 92.5% RH, Day 5", "result": "white powder"}, {"measurement": "total impurity %", "setting": "[1]; high humidity 92.5% RH, Day 5", "result": 0.07, "unit": "%"}, {"measurement": "maximum single impurity %", "setting": "[1]; high humidity 92.5% RH, Day 10", "result": 0.02, "unit": "%"}, {"measurement": "property", "setting": "[1]; high humidity 92.5% RH, Day 10", "result": "white powder"}, {"measurement": "total impurity %", "setting": "[1]; high humidity 92.5% RH, Day 10", "result": 0.06, "unit": "%"}, {"measurement": "maximum single impurity %", "setting": "[1]; high temperature 60° C., Day 5", "result": 0.02, "unit": "%"}, {"measurement": "property", "setting": "[1]; high temperature 60° C., Day 5", "result": "white powder"}, {"measurement": "total impurity %", "setting": "[1]; high temperature 60° C., Day 5", "result": 0.07, "unit": "%"}, {"measurement": "maximum single impurity %", "setting": "[1]; [3]", "result": 0.02, "unit": "%"}, {"measurement": "property", "setting": "[1]; [3]", "result": "white powder"}, {"measurement": "total impurity %", "setting": "[1]; [3]", "result": 0.09, "unit": "%"}, {"measurement": "maximum single impurity %", "setting": "[1]; [4]", "result": 0.06, "unit": "%"}, {"measurement": "property", "setting": "[1]; [4]", "result": "light yellow powder"}, {"measurement": "total impurity %", "setting": "[1]; [4]", "result": 0.16, "unit": "%"}, {"measurement": "maximum single impurity %", "setting": "[1]; [5]", "result": 0.15, "unit": "%"}, {"measurement": "property", "setting": "[1]; [5]", "result": "light yellow powder"}, {"measurement": "total impurity %", "setting": "[1]; [5]", "result": 0.26, "unit": "%"}, {"measurement": "mean pathological scores", "setting": "CS-induced ALI mice; CT-NA 10 and 30 mg/kg, Dex 1 mg/kg, 5-point scoring, dose-dependent, p<0.01", "result": "considerably reduced"}, {"measurement": "CS-induced pulmonary histopathological changes", "setting": "CS-induced ALI mice; pretreatment with CT-NA 10 and 30 mg/kg or Dex 1 mg/kg, H&E", "result": "strikingly improved"}, {"measurement": "cytotoxicity (MTT), LPS plus CT-NA", "setting": "[2]; LPS (100 ng/ml) plus CT-NA up to 100 μM", "result": "non-toxic"}, {"measurement": "cytotoxicity (MTT), PGD2 plus CT-NA", "setting": "[2]; PGD2 (10 μM) plus CT-NA up to 100 μM", "result": "non-toxic"}]}]}
